Assay results: patent US20230113037A1 (Bayer Aktiengesellschaft, priority 2019, published 2023)
pIC50: −log10 of the molar value. Read-outs that look alike come from different tables or passages of the source.

Biological target: T1, AHR (Mus musculus, UniProt P30561)
T1 sequence (P30561 1-848 P471L/N533S/M589L): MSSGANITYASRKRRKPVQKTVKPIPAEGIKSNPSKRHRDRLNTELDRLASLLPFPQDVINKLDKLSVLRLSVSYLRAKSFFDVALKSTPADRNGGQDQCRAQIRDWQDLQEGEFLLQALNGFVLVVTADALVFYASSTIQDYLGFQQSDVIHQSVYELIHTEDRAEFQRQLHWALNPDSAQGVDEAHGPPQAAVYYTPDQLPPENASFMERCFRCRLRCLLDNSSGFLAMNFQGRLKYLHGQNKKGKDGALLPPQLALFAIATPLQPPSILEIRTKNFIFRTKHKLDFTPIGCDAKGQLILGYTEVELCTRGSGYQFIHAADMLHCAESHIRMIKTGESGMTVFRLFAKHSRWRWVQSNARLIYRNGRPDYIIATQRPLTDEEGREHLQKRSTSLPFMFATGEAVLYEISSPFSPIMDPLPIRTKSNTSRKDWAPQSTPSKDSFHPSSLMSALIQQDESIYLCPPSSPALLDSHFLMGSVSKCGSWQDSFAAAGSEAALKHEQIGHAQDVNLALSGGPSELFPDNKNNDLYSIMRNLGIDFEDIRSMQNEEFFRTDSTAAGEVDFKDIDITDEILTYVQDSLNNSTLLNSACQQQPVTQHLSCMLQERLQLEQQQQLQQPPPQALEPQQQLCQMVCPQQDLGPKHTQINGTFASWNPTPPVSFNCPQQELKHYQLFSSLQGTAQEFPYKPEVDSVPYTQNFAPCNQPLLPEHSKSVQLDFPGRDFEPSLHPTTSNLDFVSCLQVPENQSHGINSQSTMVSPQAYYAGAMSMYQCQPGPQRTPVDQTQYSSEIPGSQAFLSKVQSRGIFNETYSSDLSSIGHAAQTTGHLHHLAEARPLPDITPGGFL
Experiment: In vitro assay 3: antagonism in mouse cell line (AHR transactivation, firefly luciferase reporter, kynurenic acid prestimulated)
Assay type: cell-based
Experimental: Examples were tested in selected biological assays one or more times. When tested more than once, data are reported as either average values or as median values, wherein • the average value, also referred to as the arithmetic mean value, represents the sum of the values obtained divided by the number of times tested, and • the median value represents the middle number of the group of values when ranked in ascending or descending order. If the number of values in the data set is odd, the median is the middle value. If the number of values in the data set is even, the median is the arithmetic mean of the two middle values.
In addition the cells were stably transfected with an AHR inducible firefly luciferase reporter gene construct that carried AHR-binding sites (DRE) in its promoter. Kynurenic acid is an endogenous AHR activating ligand and was used to prestimulate test cells prior to testing the antagonistic properties of compounds.
As positive inhibition control cells without addition of kynurenic acid were incubated. Normalization was done by positive and negative controls.
Firefly luciferase activity was determined by the SteadyGlo Luciferase Assay System (Promega, #E2550).

[1] = mouse Hepa 1c1c7 cells, 200 μM kynurenic acid, 20 hours, read-out: AHR Antagonism Mouse IC50
[2] = Hepa 1c1c7 cells, 200 μM kynurenic acid, 20 hours, firefly luciferase reporter, read-out: AHR Antagonism Mouse IC50

SMILES | pIC50 [1] | also measured
COc1ccc(-c2nc3c4c(C)cccc4nc(N[C@@H]4CNCCNC4=O)n3n2)cc1 [Example 290, (6R)-6-{[2-(4-methoxyphenyl)-10-methyl[1,2,4]triazolo[1,5-c]quinazolin-5-yl]amino}-1,4-diazepan-5-one] | 6.54 | –
COc1ccc(-c2nc3c4ccccc4nc(N[C@@H]4CN(C)CCNC4=O)n3n2)cc1 [Example 656, (6R)-6-{[2-(4-methoxyphenyl)[1,2,4]triazolo[1,5-c]quinazolin-5-yl]amino}-1-methyl-1,4-diazepan-5-one] | 7.52 | –
O=C1NCCNC[C@H]1Nc1nc2ccccc2c2nc(-c3cnn(CCO)c3)nn12 [Example 414, (6R)-5-({2-[1-(2-hydroxyethyl)-1H-pyrazol-4-yl][1,2,4]triazolo[1,5-c]quinazolin-5-yl}amino)-1,4-diazepan-5-one] | < 4.70 | –
O=C1NCCNCC1Nc1nc2cccc(Cl)c2c2nc(-c3ccc(F)cc3)nn12 (single isomer, unassigned) [Example 298, 6-{[10-chloro-2-(4-fluorophenyl)[1,2,4]triazolo[1,5-c]quinazolin-5-yl]amino}-1,4-diazepan-5-one] | 7.20 | –
COc1ccc(-c2nc3c4c(Br)cccc4nc(N[C@@H]4CNCCNC4=O)n3n2)cc1 (stereo in doubt) [Example 281, 6-{[10-bromo-2-(4-methoxyphenyl)[1,2,4]triazolo[1,5-c]quinazolin-5-yl]amino}-1,4-diazepan-5-one] | 7.63 | –
O=C1NCCCC[C@H]1Nc1nc2c(Br)cccc2c2nc(-c3ccc(Cl)cc3)nn12 [Example 830, (3R)-3-{[7-bromo-2-(4-chlorophenyl)[1,2,4]triazolo[1,5-c]quinazolin-5-yl]amino}azepan-2-one] | – | pIC50 [2]: < 4.70
O=C1NCCNCC1Nc1nc2cccc(Br)c2c2nc(-c3cccc(F)c3)nn12 (stereo not drawn) [Example 283, 6-{[10-bromo-2-(3-fluorophenyl)[1,2,4]triazolo[1,5-c]quinazolin-5-yl]amino}-1,4-diazepan-5-one] | 6.76 | –
COc1ccc(-c2nc3c4ccccc4nc(NC4CCCNC4=O)n3n2)cc1 (stereo not drawn) [Example 28, 3-{[2-(4-methoxyphenyl)[1,2,4]triazolo[1,5-c]quinazolin-5-yl]amino}piperidin-2-one] | 8.18 | –
COc1ccc(-c2nc3c4cccc(Br)c4nc(N[C@@H]4CCCCNC4=O)n3n2)cc1 [Example 215, (3R)-3-{[7-bromo-2-(4-methoxyphenyl)[1,2,4]triazolo[1,5-c]quinazolin-5-yl]amino}azepan-2-one] | 8.91 | –
O=C1NCCCC[C@@H]1Nc1nc2c(Br)cccc2c2nc(-c3cccc(F)c3)nn12 [Example 209, (3S)-3-{[7-bromo-2-(3-fluorophenyl)[1,2,4]triazolo[1,5-c]quinazolin-5-yl]amino}azepan-2-one] | 7.81 | –
COc1ccc(-c2nc3c4c(C)cccc4nc(NC4CNCCNC4=O)n3n2)cc1 (stereo not drawn) [Example 192, 6-{[2-(4-methoxyphenyl)-10-methyl[1,2,4]triazolo[1,5-c]quinazolin-5-yl]amino}-1,4-diazepan-5-one] | 7.46 | –
O=C1NCCNCC1Nc1nc2cccc(Br)c2c2nc(-c3ccc(F)cc3)nn12 (stereo not drawn) [Example 282, 6-{[10-bromo-2-(4-fluorophenyl)[1,2,4]triazolo[1,5-c]quinazolin-5-yl]amino}-1,4-diazepan-5-one] | 7.57 | –
O=C1NCCC[C@H]1Nc1nc2ccccc2c2nc(-c3ccc(Cl)cc3OC(F)F)nn12 [Example 527, (3R)-3-({2-[4-chloro-2-(difluoromethoxy)phenyl][1,2,4]triazolo[1,5-c]quinazolin-5-yl}amino)piperidin-2-one] | 8.26 | –
COc1cccc(-c2nc3c4ccccc4nc(N[C@@H](C(=O)O)C(C)C)n3n2)c1 [Example 94, N-[2-(3-methoxyphenyl)[1,2,4]triazolo[1,5-c]quinazolin-5-yl]-D-valine] | 7.77 | –
COc1ccc(-c2nc3c4ccccc4nc(NC4CCNC4=O)n3n2)cc1 (stereo not drawn) [Example 31, 3-{[2-(4-methoxyphenyl)[1,2,4]triazolo[1,5-c]quinazolin-5-yl]amino}pyrrolidin-2-one] | 7.87 | –
COc1ccc(-c2nc3c4ccccc4nc(N[C@H]4CCCCNC4=O)n3n2)cc1 [Example 30, (3S)-3-{[2-(4-methoxyphenyl)[1,2,4]triazolo[1,5-c]quinazolin-5-yl]amino}azepan-2-one] | 8.01 | –
O=C1NCCC[C@H]1Nc1nc2c(Br)cccc2c2nc(-c3ccc(F)cc3)nn12 [Example 226, (3R)-3-{[7-bromo-2-(4-fluorophenyl)[1,2,4]triazolo[1,5-c]quinazolin-5-yl]amino}piperidin-2-one] | 8.82 | –
O=C1NCCC[C@H]1Nc1nc2ccccc2c2nc(-c3ccc(OC(F)(F)F)cc3)nn12 [Example 332, (3R)-3-({2-[4-(trifluoromethoxy)phenyl][1,2,4]triazolo[1,5-c]quinazolin-5-yl}amino)piperidin-2-one] | 8.22 | –
N#Cc1ccc(-c2nc3c4ccccc4nc(N[C@@H]4CCNC4=O)n3n2)cc1 [Example 388, 4-(5-{[(3R)-2-oxopyrrolidin-3-yl]amino}[1,2,4]triazolo[1,5-c]quinazolin-2-yl)benzonitrile] | 5.54 | –
O=C1NCCCC[C@H]1Nc1nc2cccc(Cl)c2c2nc(-c3ccc(F)cc3)nn12 [Example 170, (3R)-3-{[10-chloro-2-(4-fluorophenyl)[1,2,4]triazolo[1,5-c]quinazolin-5-yl]amino}azepan-2-one] | 9.23 | –
O=C1NCCCC[C@H]1Nc1nc2c(Br)cccc2c2nc(-c3cnn(C(F)F)c3)nn12 [Example 827, (3R)-3-({7-bromo-2-[1-(difluoromethyl)-1H-pyrazol-4-yl][1,2,4]triazolo[1,5-c]quinazolin-5-yl}amino)azepan-2-one] | – | pIC50 [2]: 9.39
O=C1NCC[C@H]1Nc1nc2ccccc2c2nc(-c3ccc(OC(F)(F)F)cc3)nn12 [Example 327, (3R)-3-({2-[4-(trifluoromethoxy)phenyl][1,2,4]triazolo[1,5-c]quinazolin-5-yl}amino)pyrrolidin-2-one] | 8.28 | –
C[C@@H](Nc1nc2ccccc2c2nc(-c3ccccc3OC(F)(F)F)nn12)C(=O)NCCN(C)C [Example 791, formic acid-N-[2-(dimethylamino)ethyl]-N^2-{2-[2-(trifluoromethoxy)phenyl][1,2,4]triazolo[1,5-c]quinazolin-5-yl}-D-alaninamide (1/1)] | – | pIC50 (read-out: AHR Antagonism Mouse IC50, Hepa 1c1c7 cells, 200 μM kynurenic acid, 20 hours, firefly luciferase reporter): 6.58
O=C1NCC[C@H]1Nc1nc2c(Br)cccc2c2nc(-c3ccc(F)cc3)nn12 [Example 217, (3R)-3-{[7-bromo-2-(4-fluorophenyl)[1,2,4]triazolo[1,5-c]quinazolin-5-yl]amino}pyrrolidin-2-one] | 8.60 | –
O=C1NCCC[C@H]1Nc1nc2ccccc2c2nc(-c3ccccc3Br)nn12 [Example 454, (3R)-3-{[2-(2-bromophenyl)[1,2,4]triazolo[1,5-c]quinazolin-5-yl]amino}piperidin-2-one] | 6.78 | –
CC[C@H](Nc1nc2ccccc2c2nc(-c3cccc(OC(F)(F)F)c3)nn12)C(N)=O [Example 448, (2S)-2-({2-[3-(trifluoromethoxy)phenyl][1,2,4]triazolo[1,5-c]quinazolin-5-yl}amino)butanamide] | 6.87 | –
COc1ccc(-c2nc3c4cccc(Br)c4nc(N[C@H]4CCCCNC4=O)n3n2)cc1 [Example 211, (3S)-3-{[7-bromo-2-(4-methoxyphenyl)[1,2,4]triazolo[1,5-c]quinazolin-5-yl]amino}azepan-2-one] | 7.78 | –
